{"source": "ChEMBL document CHEMBL1140816", "about": "“Syntheses of tetrahydrothiophenes and tetrahydrofurans and studies of their derivatives as melanocortin-4 receptor ligands” (Bioorg Med Chem Lett, 2008)", "data": [{"molecular_target": "T1, Melanocortin receptor 4 (Homo sapiens, UniProt P32245)", "T1 sequence (P32245 whole entry)": "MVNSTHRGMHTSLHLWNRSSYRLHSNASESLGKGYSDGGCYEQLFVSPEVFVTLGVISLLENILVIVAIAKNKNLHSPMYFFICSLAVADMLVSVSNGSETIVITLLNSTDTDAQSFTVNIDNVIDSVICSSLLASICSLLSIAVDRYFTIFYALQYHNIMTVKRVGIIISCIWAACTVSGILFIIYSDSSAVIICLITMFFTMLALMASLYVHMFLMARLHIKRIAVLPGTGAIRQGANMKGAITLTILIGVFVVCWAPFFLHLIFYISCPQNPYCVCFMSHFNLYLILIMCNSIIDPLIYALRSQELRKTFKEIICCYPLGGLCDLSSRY", "assay": "Binding affinity at MC4R", "units": {"IC50": "nM"}, "values": [{"smiles": "CC(C)(C)N1C[C@H](C(=O)N2CCC(CN3CCOC3=O)(C3CCCCC3)CC2)[C@@H](c2ccc(F)cc2F)C1", "IC50": 14}]}, {"molecular_target": "T1, Melanocortin receptor 4", "assay": "Binding affinity at human MC4R", "units": {"Ki": "nM"}, "values": [{"smiles": "CC(C)C[C@H](N)c1cc(C(F)(F)F)ccc1N1CCN(C(=O)C(C)(C)Cc2ccc(Cl)cc2)CC1", "Ki": 810}]}, {"molecular_target": "T1, Melanocortin receptor 4", "assay": "Antagonist activity at human MC4R assessed as inhibition of alpha MSH-stimulated cAMP release by cell based assay", "type": "functional", "units": {"IC50": "nM"}, "values": [{"smiles": "CC(C)C[C@H](N)c1cc(C(F)(F)F)ccc1N1CCN(C(=O)[C@H]2CS(=O)(=O)C[C@@H]2c2ccc(Cl)cc2)CC1", "IC50": 690}, {"smiles": "Cc1ccc(N2CCN(C(=O)[C@@H]3OCC[C@@H]3c3ccc(Cl)cc3)CC2)c([C@@H](NC(=O)CCN(C)C)C(C)C)c1", "IC50": 530}]}, {"molecular_target": "T1, Melanocortin receptor 4", "assay": "Agonist activity at MC4R", "type": "functional", "units": {"EC50": "nM"}, "values": [{"smiles": "CC(C)(C)N1C[C@H](C(=O)N2CCC(CN3CCOC3=O)(C3CCCCC3)CC2)[C@@H](c2ccc(F)cc2F)C1", "EC50": 2}]}, {"molecular_target": "T1, Melanocortin receptor 4", "assay": "Displacement of [125I]NDP-MSH from human MC4R expressed in HEK293 cells", "type": "cell-based", "units": {"Ki": "nM"}, "values": [{"smiles": "Cc1ccc(N2CCN(C(=O)[C@@H]3CCO[C@@H]3c3ccc(Cl)cc3)CC2)c([C@@H](N)C(C)C)c1", "Ki": 590}, {"smiles": "CC(C)C[C@H](NC(=O)CCN(C)C)c1cc(C(F)(F)F)ccc1N1CCN(C(=O)[C@H]2CSC[C@@H]2c2ccc(Cl)cc2)CC1", "Ki": 130}, {"smiles": "CC(C)C[C@H](NC(=O)[C@@H](C)N)c1cc(C(F)(F)F)ccc1N1CCN(C(=O)[C@H]2CSC[C@@H]2c2ccc(Cl)cc2)CC1", "Ki": 130}, {"smiles": "CNCC(=O)N[C@@H](CC(C)C)c1cc(C(F)(F)F)ccc1N1CCN(C(=O)[C@H]2CSC[C@@H]2c2ccc(Cl)cc2)CC1", "Ki": 250}, {"smiles": "CC(C)C[C@H](NC(=O)CCN(C)C)c1cc(C(F)(F)F)ccc1N1CCN(C(=O)[C@H]2CS(=O)(=O)C[C@@H]2c2ccc(Cl)cc2)CC1", "Ki": 170}, {"smiles": "CNCCC(=O)N[C@@H](CC(C)C)c1cc(C(F)(F)F)ccc1N1CCN(C(=O)[C@H]2CS(=O)(=O)C[C@@H]2c2ccc(Cl)cc2)CC1", "Ki": 190}, {"smiles": "CC(C)C[C@H](N)c1cc(C(F)(F)F)ccc1N1CCN(C(=O)[C@H]2CS(=O)(=O)C[C@@H]2c2ccc(Cl)cc2)CC1", "Ki": 38}, {"smiles": "Cc1ccc(N2CCN(C(=O)[C@@H]3CCO[C@@H]3c3ccc(Cl)cc3)CC2)c([C@@H](NC(=O)CCN(C)C)C(C)C)c1", "Ki": 120}, {"smiles": "CC(C)[C@H](N)c1cccc(F)c1N1CCN(C(=O)[C@@H]2CCO[C@@H]2c2ccc(Cl)cc2)CC1", "Ki": 2100}, {"smiles": "CC(C)[C@H](NC(=O)CCN(C)C)c1cccc(F)c1N1CCN(C(=O)[C@@H]2CCO[C@@H]2c2ccc(Cl)cc2)CC1", "Ki": 480}, {"smiles": "CC(C)C[C@H](N)c1cc(C(F)(F)F)ccc1N1CCN(C(=O)C2COCC2c2ccc(Cl)cc2)CC1", "note": "(some centres not stated)", "Ki": 280}, {"smiles": "Cc1ccc(N2CCN(C(=O)[C@@H]3OCC[C@@H]3c3ccc(Cl)cc3)CC2)c([C@@H](NC(=O)CCN(C)C)C(C)C)c1", "Ki": 10}, {"smiles": "CC(C)C[C@H](NC(=O)CCN(C)C)c1cc(C(F)(F)F)ccc1N1CCN(C(=O)[C@H]2CCO[C@@H]2c2ccc(Cl)cc2)CC1", "Ki": 200}, {"smiles": "CC(C)C[C@H](NC(=O)CCN(C)C)c1cc(Cl)ccc1N1CCN(C(=O)[C@H]2CCO[C@@H]2c2ccc(Cl)cc2)CC1", "Ki": 74}, {"smiles": "CC(C)[C@H](NC(=O)CCN(C)C)c1cccc(F)c1N1CCN(C(=O)[C@H]2CS(=O)(=O)C[C@@H]2c2ccc(Cl)cc2)CC1", "Ki": 380}, {"smiles": "CC(C)[C@H](NC(=O)CCN(C)C)c1cccc(F)c1N1CCN(C(=O)[C@@H]2CS(=O)(=O)C[C@H]2c2ccc(Cl)cc2)CC1", "Ki": 37}, {"smiles": "CNCC(=O)N[C@@H](CC(C)C)c1cc(C(F)(F)F)ccc1N1CCN(C(=O)[C@H]2CS(=O)(=O)C[C@@H]2c2ccc(Cl)cc2)CC1", "Ki": 180}, {"smiles": "CC(C)C[C@H](NC(=O)CCN(C)C)c1cc(Cl)ccc1N1CCN(C(=O)[C@@H]2CCO[C@@H]2c2ccc(Cl)cc2)CC1", "Ki": 87}, {"smiles": "CC(C)[C@H](NC(=O)CCN(C)C)c1cccc(F)c1N1CCN(C(=O)C2COCC2c2ccc(Cl)cc2)CC1", "note": "(some centres not stated)", "Ki": 40}, {"smiles": "CC(C)[C@H](NC(=O)CCN(C)C)c1cccc(F)c1N1CCN(C(=O)[C@@H]2COC[C@@H]2c2ccc(Cl)cc2)CC1", "Ki": 28}, {"smiles": "CC(C)[C@H](N)c1cccc(F)c1N1CCN(C(=O)C2COCC2c2ccc(Cl)cc2)CC1", "note": "(some centres not stated)", "Ki": 790}, {"smiles": "CC(C)C[C@H](N)c1cc(C(F)(F)F)ccc1N1CCN(C(=O)C2C(=O)OCC2c2ccc(Cl)cc2)CC1", "note": "(some centres not stated)", "Ki": 260}, {"smiles": "CC(C)[C@H](NC(=O)CCN(C)C)c1cccc(F)c1N1CCN(C(=O)[C@H]2COC[C@@H]2c2ccc(Cl)cc2)CC1", "Ki": 30}, {"smiles": "CC(C)C[C@H](NC(=O)[C@@H](C)N)c1cc(C(F)(F)F)ccc1N1CCN(C(=O)[C@H]2CS(=O)(=O)C[C@@H]2c2ccc(Cl)cc2)CC1", "Ki": 100}, {"smiles": "Cc1ccc(N2CCN(C(=O)[C@H]3CCO[C@@H]3c3ccc(Cl)cc3)CC2)c([C@@H](N)C(C)C)c1", "Ki": 410}, {"smiles": "CC(C)C[C@H](NC(=O)CCN)c1cc(C(F)(F)F)ccc1N1CCN(C(=O)C2CC(=O)OC2c2ccc(Cl)cc2)CC1", "note": "(some centres not stated)", "Ki": 110}, {"smiles": "CC(C)C[C@H](NC(=O)CCN(C)C)c1cc(C(F)(F)F)ccc1N1CCN(C(=O)[C@H]2C[S+]([O-])C[C@@H]2c2ccc(Cl)cc2)CC1", "note": "(some centres not stated)", "Ki": 230}, {"smiles": "CNCCC(=O)N[C@@H](CC(C)C)c1cc(C(F)(F)F)ccc1N1CCN(C(=O)[C@H]2CSC[C@@H]2c2ccc(Cl)cc2)CC1", "Ki": 170}, {"smiles": "CC(C)C[C@H](N)c1cc(Cl)ccc1N1CCN(C(=O)[C@H]2CCO[C@@H]2c2ccc(Cl)cc2)CC1", "Ki": 280}, {"smiles": "CC(C)C[C@H](NC(=O)CCN(C)C)c1cc(C(F)(F)F)ccc1N1CCN(C(=O)C2COCC2c2ccc(Cl)cc2)CC1", "note": "(some centres not stated)", "Ki": 71}, {"smiles": "CC(C)C[C@H](NC(=O)CCN)c1cc(C(F)(F)F)ccc1N1CCN(C(=O)C2C(=O)OCC2c2ccc(Cl)cc2)CC1", "note": "(some centres not stated)", "Ki": 180}, {"smiles": "CC(C)C[C@H](N)c1cc(C(F)(F)F)ccc1N1CCN(C(=O)[C@H]2CCO[C@@H]2c2ccc(Cl)cc2)CC1", "Ki": 330}, {"smiles": "CC(C)C[C@H](NC(=O)CCN(C)C)c1cc(C(F)(F)F)ccc1N1CCN(C(=O)C2C(=O)OCC2c2ccc(Cl)cc2)CC1", "note": "(some centres not stated)", "Ki": 290}, {"smiles": "CC(C)C[C@H](N)c1cc(C(F)(F)F)ccc1N1CCN(C(=O)[C@H]2CSC[C@@H]2c2ccc(Cl)cc2)CC1", "Ki": 280}, {"smiles": "CC(C)[C@H](N)c1cccc(F)c1N1CCN(C(=O)[C@H]2CCO[C@@H]2c2ccc(Cl)cc2)CC1", "Ki": 1100}, {"smiles": "Cc1ccc(N2CCN(C(=O)[C@H]3OCC[C@@H]3c3ccc(Cl)cc3)CC2)c([C@@H](NC(=O)CCN(C)C)C(C)C)c1", "Ki": 43}, {"smiles": "CC(C)C[C@H](N)c1cc(C(F)(F)F)ccc1N1CCN(C(=O)[C@H]2C[S+]([O-])C[C@@H]2c2ccc(Cl)cc2)CC1", "note": "(some centres not stated)", "Ki": 120}]}]}
